According to PMC10412636, “An analysis of interactions between three structurally diverse anthocyanidins, as well as their glucosides, and model biological membranes, albumin, and plasmid DNA” (Scientific Reports, 2023):

What was measured:
[1] = DPH fluorescence quenching, dissociation constant with RBCM liposome membrane; format: binding, human; details: 37 °C
Protocol: (§1) Two types of liposomes were used to study interactions with biological membranes: liposomes mimicking the composition of cancer cell membranes (mimic membrane liposome—MM) and liposomes formed from lipids extracted from human blood erythrocyte membranes (red blood cell membrane liposome—RBCM). […] Both lipids, dissolved in chloroform (MM liposome) and n-decane (RBCM liposome), were evaporated under a nitrogen atmosphere, and then dried in a desiccator for 90 min under a vacuum. The obtained dry lipid film was hydrated in phosphate buffer, pH 7.4, obtaining a concentration of 0.1 mg/ml, and then vortexed for one minute until a homogeneous, milky suspension was observed. The mixture was sonicated (Sonic, Milano, Italia) for 15 min keeping the sample in a bath of ice water, thus providing a cooling temperature of 0 °C. The suspension was then processed (extrusion) through polycarbonate filters with pore diameters of 100 and 200 nm using a Lipex extruder (Evonik). Liposomes, which had been prepared according to this procedure, was used in fluorimetric studies.
(§2) The phenomenon of quenching the fluorescence of the DPH probe by biologically active substances enabled us to evaluate the partition coefficient (Kd, dissociation constant) of anthocyanins with both MM and RBCM liposome membranes. For this purpose, changes in the fluorescence intensity of this probe were checked and the coefficient was calculated using the equation[48]:2 1/F0/F-1=Kd/[liposomes]×1/[anthocyanins]+1/liposomes where F0—fluorescence intensity in the absence of anthocyanins (control sample), F—fluorescence intensity in the presence of anthocyanins, [liposomes]—concentration of liposomes in mg/ml, [anthocyanins]—concentration of anthocyanins tested mg/ml.
(§3) Liposomes (the concentration of lipids in the sample was 0.1 mg/ml) were incubated for 30 min with the appropriate probe (dissolved in DMF, 1 µM concentration), and then the tested anthocyanins were added (final concentration of 1 to 30 µM). The control sample consisted of liposomes and a fluorescent probe. Fluorescence was measured on a fluorimeter (Cary Eclipse, Varian, San Diego, USA) at 37 °C. The excitation wavelengths λex and emission wavelengths λem respectively: MC540—λexc = 540 nm, λem = 590 nm; DPH—λexc = 360 nm, λem = 425 nm. nm; TMA-DPH—λexc = 340 nm, λem = 430 nm.

[2] = TMA-DPH probe fluorescence anisotropy in MM liposomes; details: negative = increase in anisotropy
Protocol: as §1
(§4) To investigate these properties three fluorescent probes were used: MC540, TMA-DPH, and DPH. MC540 localizes to the outer, hydrophilic part of the membrane, within the region of the glycerol skeleton[44]. Changes in the fluorescence intensity of this probe were formulated as the relative change in intensity to the control as a function of anthocyanins concentration. The TMA-DPH and DPH probes are supposed to locate nearer to the interface and in the hydrophobic region, respectively[45]. The measurement of changes in the anisotropy of the TMA-DPH and DPH probes allowed us to reflect the mobility of the fluorescent probes in the membrane, and therefore to determine the fluidity of the bilayer[46]. Fluorescence anisotropy was calculated using the formula[47]:1 A=I‖-GI⊥/I‖+2GI⊥ where I‖ and I⊥ are the intensity of fluorescence in parallel and perpendicular directions, to the plane of polarization of the excitation wave, respectively. G is an apparatus constant that depends on the emission wavelength.
as §3

[3] = MC540 probe fluorescence intensity in MM liposomes; details: 37 °C, positive = decrease
Protocol: as §1, §4, §3

[4] = molecular target: human serum albumin (HSA) (Homo sapiens, UniProt P02768); assay: Quenching of natural fluorescence of human serum albumin; format: binding; details: HSA […] 10^–5 M, 37 °C
Chain of human serum albumin (HSA) (P02768 25-609): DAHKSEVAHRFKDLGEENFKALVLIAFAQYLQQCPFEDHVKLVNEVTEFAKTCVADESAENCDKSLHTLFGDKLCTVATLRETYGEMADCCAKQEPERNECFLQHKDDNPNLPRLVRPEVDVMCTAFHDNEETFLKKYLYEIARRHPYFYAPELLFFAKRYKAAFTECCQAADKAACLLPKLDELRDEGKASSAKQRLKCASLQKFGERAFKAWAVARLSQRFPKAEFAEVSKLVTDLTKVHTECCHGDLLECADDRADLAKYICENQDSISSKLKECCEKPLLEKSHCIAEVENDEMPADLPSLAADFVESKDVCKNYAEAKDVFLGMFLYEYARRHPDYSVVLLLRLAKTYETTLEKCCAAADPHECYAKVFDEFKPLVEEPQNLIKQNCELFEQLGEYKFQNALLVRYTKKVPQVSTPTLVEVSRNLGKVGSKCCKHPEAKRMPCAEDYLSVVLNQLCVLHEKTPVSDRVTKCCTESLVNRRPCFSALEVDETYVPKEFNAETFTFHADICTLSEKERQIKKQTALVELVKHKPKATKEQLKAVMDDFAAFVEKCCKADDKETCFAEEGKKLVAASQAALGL
Protocol: The phenomenon of quenching the natural fluorescence of human serum albumin (HSA) was used to investigate the potential interaction of anthocyanins with this protein. […] Anthocyanins with concentrations ranging from 1 to 30 µM were added to HSA dissolved in phosphate buffer (1.5 × 10^–5 M) and then incubated at 37 °C for 20 min. Emission spectra were performed on a fluorimeter Cary Eclipse (Varian, San Diego, USA) at 37 °C. HSA fluorescence was excited with a wavelength of λ = 280 nm, the emission was measured in the range from 286 to 460 nm, and the fluorescence intensity was read at 345 nm where the emission maximum of HSA was located.
The Stern–Volmer equation was used to thoroughly describe the quenching mechanism of natural fluorescence and to determine the bindings parameters of HSA: anthocyanin complexes:4 F0/F=1+Kqτ0Q=1+KSV[Q] where F0—fluorescence intensity in the absence of anthocyanins (control sample), F—fluorescence intensity in the presence of anthocyanins, KSV—Stern–Volmer quenching constant (KSV = Kq·τ0), [Q]—concentration of quencher (tested compound), Kq—bimolecular quenching constant, τ0—a lifetime of the fluorophore in the absence of quencher the fluorescence lifetime of a biopolymer is calculated as 5 × 10^–9 s[51].
The apparent binding constants (Kb) and the number of binding sites (n) can be calculated using the following equation:5 log(F0-F/F]=logKb+nlog[Q]
F0 and F are the fluorescence intensities before and after the addition of the quencher. From the linear plot of log (F0 − F)/F versus log [Q], the value of Kb was obtained from the intercept.

[5] = TMA-DPH probe fluorescence anisotropy in RBCM liposomes; design: species or system human; details: negative = increase in anisotropy
Source text: Two types of liposomes were used to study interactions with biological membranes: liposomes mimicking the composition of cancer cell membranes (mimic membrane liposome—MM) and liposomes formed from lipids extracted from human blood erythrocyte membranes (red blood cell membrane liposome—RBCM). […] The RBCM liposome was according to the methodology described previously[42] with minor modifications[43]. Both lipids, dissolved in chloroform (MM liposome) and n-decane (RBCM liposome), were evaporated under a nitrogen atmosphere, and then dried in a desiccator for 90 min under a vacuum. The obtained dry lipid film was hydrated in phosphate buffer, pH 7.4, obtaining a concentration of 0.1 mg/ml, and then vortexed for one minute until a homogeneous, milky suspension was observed. The mixture was sonicated (Sonic, Milano, Italia) for 15 min keeping the sample in a bath of ice water, thus providing a cooling temperature of 0 °C. The suspension was then processed (extrusion) through polycarbonate filters with pore diameters of 100 and 200 nm using a Lipex extruder (Evonik). Liposomes, which had been prepared according to this procedure, was used in fluorimetric studies.
To investigate these properties three fluorescent probes were used: MC540, TMA-DPH, and DPH. MC540 localizes to the outer, hydrophilic part of the membrane, within the region of the glycerol skeleton[44]. […] The TMA-DPH and DPH probes are supposed to locate nearer to the interface and in the hydrophobic region, respectively[45]. The measurement of changes in the anisotropy of the TMA-DPH and DPH probes allowed us to reflect the mobility of the fluorescent probes in the membrane, and therefore to determine the fluidity of the bilayer[46]. Fluorescence anisotropy was calculated using the formula[47]:1 A=I‖-GI⊥/I‖+2GI⊥ where I‖ and I⊥ are the intensity of fluorescence in parallel and perpendicular directions, to the plane of polarization of the excitation wave, respectively. G is an apparatus constant that depends on the emission wavelength.
as §3

[6] = tested on: pHbApr-1-Neo plasmid DNA; assay: TCSPC-FCS of PicoGreen-labelled plasmid DNA with anthocyanins; format: binding
Protocol: To evaluate the biological interaction with DNA molecules the anthocyanins were initially dissolved in ETOH (1 mM). […] Mixing of such solutions with the aqueous DNA solutions used in the studies never exceeded 1% concentration ETOH (v/v) in the final solution. The DNA plasmid was labelled by PicoGreen (CPicoGreen/CDNAbp = 0.02)[52]. The pHbApr-1-Neo plasmid (10 kbp and contour length 3.4 µm) was a generous gift from the laboratory of Prof. Maciej Ugorski (Department of Biochemistry and Molecular Biology, Wrocław University of Environmental and Life Sciences Wroclaw, Poland). PicoGreen-labelled DNA samples mixed with the appropriate amount of anthocyanins were left overnight and then measured. The increasing concentration of anthocyanins in the tested samples was expressed as the ratio of the molar concentration of anthocyanins per molar concentration of DNA base pairs in a given sample (comp/bp). The 100 µl samples were measured in Ibidi 8-well chambers. Each point on the graph is a single sample (average of 10 measurements). All measurements were performed at room temperature (25 °C). Time-correlated single-photon counting fluorescence correlation spectroscopy (TCSPC-FCS) was used to study the interaction of plasmid DNA at the single molecule level with all tested anthocyanins. […] Low power of 1uW (at the back aperture of the objective) was chosen to minimize photobleaching and saturation. In the detection plane, a pinhole (50um in diameter) was used and the signal was collected by a single photon avalanche diode (SPAD, Microphoton Devices, Bolzano, Italy). Photon arrival times were stored using fast electronics (Picoharp 300, PicoQuant) in time-tagged time-resolved recording mode. Two independent times were assigned to each detected photon: (1) a time after the beginning of the measurement and (2) a time after the previous laser pulse. The FCS data analysis was done using home-built routines (DevC++, Bloodshed Software and OriginPro70, OriginLab Corporation). The TCSPC data analysis was performed using SymPhoTime software (PicoQuant). Further details of the data evaluation are given elsewhere.

[7] = tested on: HSA; design: method as in earlier work; details: cited from earlier work
[8] = DPH fluorescence quenching, dissociation constant with MM liposome membrane; format: binding; details: 37 °C
Protocol: as §1, §2, §3

[9] = DPH probe fluorescence anisotropy in MM liposomes; details: MM, negative = increase in anisotropy
Protocol: as §1, §4, §3

[10] = MC540 probe fluorescence intensity in RBCM liposomes; design: species or system human; details: 37 °C, positive = decrease
Protocol: as §1, §4, §3

[11] = DPH probe fluorescence anisotropy in RBCM liposomes; design: species or system human; details: RBCM, negative = increase in anisotropy
Protocol: as §1, §4, §3

[12] = 30 µM, listed as delphinidin glucoside
[13] = 30 µM, listed as petunidin glucoside

SMILES: OCC1OC(Oc2cc3c(O)cc(O)cc3[o+]c2-c2cc(O)c(O)c(O)c2)C(O)C(O)C1O (centres unmarked) [Dp 3-glc, Delphinidin 3-O-glucoside]
- Kd [1]: 13.4 ± 3.05 µM
- Changes in TMA-DPH anisotropy relative to the control ([2]; 1 µM): -4.62±0.05%
- Changes in TMA-DPH anisotropy relative to the control ([2]; 5 µM): -1.60±0.04%
- Changes in TMA-DPH anisotropy relative to the control ([2]; 10 µM): 0.26±0.005%
- Changes in TMA-DPH anisotropy relative to the control ([2]; 20 µM): 1.99±0.06%
- Changes in TMA-DPH anisotropy relative to the control ([2]; 30 µM): 0.41±0.01%
- Changes in MC540 fluorescence intensity relative to the control ([3]; 1 µM): 3.27±0.12%
- Changes in MC540 fluorescence intensity relative to the control ([3]; 5 µM): 5.73±0.30%
- Changes in MC540 fluorescence intensity relative to the control ([3]; 10 µM): 10.51±0.55%
- Changes in MC540 fluorescence intensity relative to the control ([3]; 20 µM): 20.30±0.93%
- Changes in MC540 fluorescence intensity relative to the control ([3]; 30 µM): 30.30±0.19%
- Changes in MC540 fluorescence intensity relative to the control [3, 12]: 30.3 ± 0.2%
- Stern Volmer constant KSV [4]: 20.09 ± 2.57 × 10^3 M^−1
- number of binding sites n [4]: 0.96 ± 0.03
- Changes in TMA-DPH anisotropy relative to the control ([5]; 1 µM): -2.73±0.14%
- Changes in TMA-DPH anisotropy relative to the control ([5]; 5 µM): -0.01±0.00%
- Changes in TMA-DPH anisotropy relative to the control ([5]; 10 µM): 2.57±0.07%
- Changes in TMA-DPH anisotropy relative to the control ([5]; 20 µM): 2.52±0.16%
- Changes in TMA-DPH anisotropy relative to the control ([5]; 30 µM): 1.15±0.03%
- tD changes, times smaller than those caused by Pt3-glc [6]: more than 5 times
- lifetime (LT) ([6]; 0 < comp/bp < 2, decrease from 4.25 ns): about 2.25 ns
- lifetime (LT), plateau ([6]; 2 < comp/bp < 5): about 2.1 ns
- decrease in the diffusion time (tD) ([6]; tested range of comp/bp from 0 to 5): 2.5 fold
- affinity for HSA compared to aglycone [7]: tenfold lower
- Kd [8]: 93.6 ± 19.5 µM
- Changes in DPH anisotropy relative to the control ([9]; 1 µM): -10.78±0.24%
- Changes in DPH anisotropy relative to the control ([9]; 5 µM): -12.62±0.18%
- Changes in DPH anisotropy relative to the control ([9]; 10 µM): -10.40±0.13%
- Changes in DPH anisotropy relative to the control ([9]; 20 µM): -7.80±0.10%
- Changes in DPH anisotropy relative to the control ([9]; 30 µM): -6.27±0.05%
- Changes in MC540 fluorescence intensity relative to the control ([10]; 1 µM): 11.73±0.51%
- Changes in MC540 fluorescence intensity relative to the control ([10]; 5 µM): 17.29±0.54%
- Changes in MC540 fluorescence intensity relative to the control ([10]; 10 µM): 22.06±1.25%
- Changes in MC540 fluorescence intensity relative to the control ([10]; 20 µM): 36.70±4.24%
- Changes in MC540 fluorescence intensity relative to the control ([10]; 30 µM): 47.56±9.12%
- Changes in MC540 fluorescence intensity relative to the control [10, 12]: 47.6 ± 9.1%
- Changes in DPH anisotropy relative to the control ([11]; 1 µM): -6.55±0.37%
- Changes in DPH anisotropy relative to the control ([11]; 5 µM): -6.14±0.25%
- Changes in DPH anisotropy relative to the control ([11]; 10 µM): -6.03±0.39%
- Changes in DPH anisotropy relative to the control ([11]; 20 µM): -6.20±0.38%
- Changes in DPH anisotropy relative to the control ([11]; 30 µM): -6.30±0.39%

SMILES: COc1cc(-c2[o+]c3cc(O)cc(O)c3cc2OC2OC(CO)C(O)C(O)C2O)cc(O)c1O (centres unmarked) [Pt 3-glc, Petunidin 3-O-glucoside]
- Kd [1]: 46.9 ± 6.8 µM
- Changes in TMA-DPH anisotropy relative to the control ([2]; 1 µM): -3.47±0.16%
- Changes in TMA-DPH anisotropy relative to the control ([2]; 5 µM): -2.18±0.02%
- Changes in TMA-DPH anisotropy relative to the control ([2]; 10 µM): -2.04±0.07%
- Changes in TMA-DPH anisotropy relative to the control ([2]; 20 µM): 0.91±0.03%
- Changes in TMA-DPH anisotropy relative to the control ([2]; 30 µM): -2.20±0.06%
- Changes in MC540 fluorescence intensity relative to the control ([3]; 1 µM): 6.95±0.35%
- Changes in MC540 fluorescence intensity relative to the control ([3]; 5 µM): 10.52±0.57%
- Changes in MC540 fluorescence intensity relative to the control ([3]; 10 µM): 17.35±0.69%
- Changes in MC540 fluorescence intensity relative to the control ([3]; 20 µM): 31.49±1.78%
- Changes in MC540 fluorescence intensity relative to the control ([3]; 30 µM): 42.63±0.74%
- Changes in MC540 fluorescence intensity relative to the control [3, 13]: 42.6 ± 0.7%
- Stern Volmer constant KSV [4]: 5.50 ± 0.94 × 10^3 M^−1
- number of binding sites n [4]: 0.92 ± 0.04
- Changes in TMA-DPH anisotropy relative to the control ([5]; 1 µM): -2.24±0.09%
- Changes in TMA-DPH anisotropy relative to the control ([5]; 5 µM): -0.99±0.03%
- Changes in TMA-DPH anisotropy relative to the control ([5]; 10 µM): 1.63±0.07%
- Changes in TMA-DPH anisotropy relative to the control ([5]; 20 µM): -0.47±0.02%
- Changes in TMA-DPH anisotropy relative to the control ([5]; 30 µM): 3.60±0.11%
- decrease in the diffusion time (tD) ([6]; comp/bp = 1, from about 70 ms): ~20 fold
- lifetime (LT) ([6]; comp/bp = 1, plasmid alone 4.25 ns): about 3.0 ns
- Particle Number (PN) ([6]; comp/bp = 1, plasmid alone 5): about 0.7
- diffusion time (tD) ([6]; comp/bp = 1, plasmid alone about 70 ms): 3.5 ms
- Kd [8]: 29.3 ± 5.43 µM
- Changes in DPH anisotropy relative to the control ([9]; 1 µM): -5.67±0.28%
- Changes in DPH anisotropy relative to the control ([9]; 5 µM): -9.84±0.13%
- Changes in DPH anisotropy relative to the control ([9]; 10 µM): -9.71±0.15%
- Changes in DPH anisotropy relative to the control ([9]; 20 µM): -7.55±0.12%
- Changes in DPH anisotropy relative to the control ([9]; 30 µM): -6.11±0.03%
- Changes in MC540 fluorescence intensity relative to the control ([10]; 1 µM): 13.68±0.65%
- Changes in MC540 fluorescence intensity relative to the control ([10]; 10 µM): 28.28±3.62%
- Changes in MC540 fluorescence intensity relative to the control ([10]; 20 µM): 41.75±7.08%
- Changes in MC540 fluorescence intensity relative to the control ([10]; 30 µM): 58.91±14.03%
- Changes in MC540 fluorescence intensity relative to the control [10, 13]: 58.9 ± 14.0%
- Changes in DPH anisotropy relative to the control ([11]; 1 µM): -7.54±0.13%
- Changes in DPH anisotropy relative to the control ([11]; 5 µM): -7.10±0.35%
- Changes in DPH anisotropy relative to the control ([11]; 10 µM): -7.11±0.42%
- Changes in DPH anisotropy relative to the control ([11]; 20 µM): -7.30±0.53%
- Changes in DPH anisotropy relative to the control ([11]; 30 µM): -7.24±0.48%
